In brackets after ≈: the same amount, converted by molar mass.
How the values were obtained:
NLRP3 inflammasome = target: T1, NLRP3 inflammasome (Mus musculus, UniProt Q8R4B8); experiment: Inhibition of LPS and ATP induced NLRP3 inflammasome activation in BMDMs (IL-1β level); format: cell-based, C57BL/6 mice; details: read-out: IC50, inhibitory effect on activation of NLRP3 inflammasome
T1 construct: endogenous in cells; host or cells: primary bone marrow-derived macrophages (BMDMs) from female C57BL/6 mice, differentiated with rmM-CSF
From the text: NLRP3 is an important pattern recognition receptor, that can form the NLRP3 inflammasome through the adaptor ASC and pro-caspase-1. After activation, the NLRP3 inflammasome can mediate the activation of caspase-1, thus promoting the maturation and secretion of IL-1β. In order to determine whether the prepared guaianolide sesquiterpene lactone Compounds 1-8 can inhibit the activation of the NLRP3 inflammasome, we used LPS and ATP to induce the activation of the NLRP3 inflammasome, and observed the effects of Compounds 1-8 on the IL-1β level caused by NLRP3 inflammasome activation.
C57BL/6 mice were sacrificed by cervical dislocation, and then soaked in 75% alcohol for 5-10 min. Subsequently, two hind legs of the mice were cut off with scissors. Next, the meat was removed, and the leg bones were left, which were then washed with PBS for three times. After severing the bone at both ends, a sterile syringe filled with cold serum-free RPMI 1640 medium was used to flush the bone marrow into a 15 mL centrifuge tube. Subsequently, the bone marrow was centrifuged at 1500 rpm for 5 min, and the supernatant was discarded. The residue was resuspended with 1 mL of erythrocyte lysate, blown repeatedly, and then stood for 7 min to lyse erythrocytes. After centrifugation at 1500 rpm for 5 min, the supernatant was discarded. The residue was resuspended with the RPMI 1640 medium containing 100 ng/ml of rmM-CSF, and then transferred to a 6-well culture plate for culture.
The BMDMs were seeded on 6-well cell culture plates and then treated with 100 ng/ml ultrapure LPS for 3 h. […] Subsequently, the cells were stimulated with 5 mM ATP for 45 min. The supernatants were collected into 1.5 mL EP tubes for subsequent detection of IL-1β level.

[1] = Stability in artificial gastric juice environment (HPLC); details: 37° C.
Description: The samples were dissolved in 500 μL of chromatographic methanol, into which were added 1500 μL of artificial gastric juice, mixed well and then dissolved completely by ultrasound. 50 μL of the above solutions were aspirated precisely, diluted by adding 200 μL of chromatographic methanol, filtered and analyzed by HPLC, wherein the HPLC analysis conditions were mobile phase: 65% methanol -35% water, flow rate: 0.8 mL/min, and column temperature: 25° C., and the initial peak areas were recorded. The above solutions were placed on a constant temperature water bath at 37° C., sampled at 8 h, 16 h and 24 h respectively, and analyzed by HPLC. By calculating the peak areas respectively, the stability data of the corresponding samples in artificial gastric juice environment at 8 h, 16 h and 24 h can be obtained.

Solubility test in water = format: physicochemical; details: thermodynamic from solid; deionized water, 37° C.
Description: Saturated solutions were formulated, filtered and analyzed by HPLC with a sample volume of 1 μL, 3 μL, 5 μL, 10 μL, 15 µL and 20 μL sequentially, and the standard curves of the corresponding compounds were drawn.
[…] of the above compounds were formulated, dissolved by ultrasound for 4 h, and placed on a water bath at 37° C. to stand for 1 h. The resulting unsaturated solutions were centrifuged. 30 μL of supernatants were removed, diluted by adding 200 μL of deionized water, and then filtered.

[2] = test system: mouse acute liver injury model; experiment: Mouse acute liver injury model (CCl4); format: in vivo, C57BL/6 mice
Description: The mice were randomly divided into 8 groups, one of which was randomly selected as the normal group, and the other 7 groups were the model group, the parent drug 1 (0.4 and 4 μmol/kg), the hydrochloride 22 (4 μmol/kg), and the fumarate 23 (0.4 and 4 μmol/kg) groups, respectively, with 6 mice in each group. In addition to the normal group injected with 10 mL olive oil/kg, the other mice were injected intraperitoneally with 0.5 mL CCl4+9.5 mL olive oil/kg weight, i.e., the ratio of CCl4 to olive oil was 1:19. […] The mice in the normal group and model group were administered intragastrically the same volume of the solvent 0.5% CMC-Na.
1 h after the last administration, blood was collected from the venous plexus of fundus oculi, stood at room temperature for 2 h, and centrifuged at 3000 rpm for 20 min. The serum was aspirated, aliquoted, and frozen at −70° C. for subsequent use. After blood collection, the mice were sacrificed by cervical dislocation, and the abdominal cavity was opened. The livers were taken out, and rinsed twice with pre-cooled PBS. The liver left lobe tissues of the mice were cut, and fixed with 4% paraformaldehyde for 24-48 h. The remaining tissues were frozen at −70° C. for subsequent use.
μL of each sample was taken for experiments. The levels of AST and ALT in the serum of mice were detected according to the operation manual. The absorbance value was detected at the wavelength of 510 nm by a microplate reader, and the sample concentration (U/L) was calculated according to the standard curve.
The extraction method of total RNA from tissues, cDNA synthesis and the PCR amplification method are the same as those in Example 4.

T1 sequence (Q8R4B8 whole entry): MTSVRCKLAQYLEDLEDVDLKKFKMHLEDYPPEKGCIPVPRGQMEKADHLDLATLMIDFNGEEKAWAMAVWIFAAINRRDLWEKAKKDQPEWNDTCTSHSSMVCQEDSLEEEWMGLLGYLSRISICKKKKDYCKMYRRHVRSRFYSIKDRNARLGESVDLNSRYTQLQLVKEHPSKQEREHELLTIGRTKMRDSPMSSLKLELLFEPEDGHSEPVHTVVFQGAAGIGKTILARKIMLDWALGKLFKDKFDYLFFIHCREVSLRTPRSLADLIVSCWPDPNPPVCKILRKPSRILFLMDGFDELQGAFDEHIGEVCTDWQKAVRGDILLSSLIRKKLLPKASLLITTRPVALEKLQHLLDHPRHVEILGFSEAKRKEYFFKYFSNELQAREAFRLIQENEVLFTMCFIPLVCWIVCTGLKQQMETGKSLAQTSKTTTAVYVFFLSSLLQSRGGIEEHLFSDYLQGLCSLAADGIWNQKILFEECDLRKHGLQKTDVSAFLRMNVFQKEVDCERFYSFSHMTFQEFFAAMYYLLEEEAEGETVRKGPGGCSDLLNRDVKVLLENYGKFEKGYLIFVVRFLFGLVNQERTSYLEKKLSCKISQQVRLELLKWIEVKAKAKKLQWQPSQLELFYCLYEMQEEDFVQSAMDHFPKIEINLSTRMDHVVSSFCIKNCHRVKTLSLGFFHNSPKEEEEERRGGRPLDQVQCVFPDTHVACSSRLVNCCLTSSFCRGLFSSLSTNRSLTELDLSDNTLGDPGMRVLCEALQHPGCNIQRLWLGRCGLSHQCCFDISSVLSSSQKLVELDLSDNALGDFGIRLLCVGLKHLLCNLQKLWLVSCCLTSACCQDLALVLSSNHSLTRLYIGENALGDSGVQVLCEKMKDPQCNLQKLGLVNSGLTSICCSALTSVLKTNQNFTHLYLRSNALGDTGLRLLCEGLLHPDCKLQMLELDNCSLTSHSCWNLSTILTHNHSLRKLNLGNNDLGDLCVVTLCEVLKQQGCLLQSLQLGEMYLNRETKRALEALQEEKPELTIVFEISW

| SMILES | IC50 (NLRP3 inflammasome) [nM] | Non-degradation percentage at 8 h [1] [%] | Non-degradation percentage at 16 h [1] [%] | Non-degradation percentage at 24 h [1] [%] | solubility (Solubility test in water) [mg/mL] | Acta2 mRNA expression ([2]; liver, 400 μmol/kg) | Col1a1 mRNA expression ([2]; liver, 400 μmol/kg) | Tgfb1 mRNA expression ([2]; liver, 400 μmol/kg) | ALT ([2]; serum, 4 μmol/kg) [U/L] | AST ([2]; serum, 400 μmol/kg) [U/L] |
| --- | --- | --- | --- | --- | --- | --- | --- | --- | --- | --- |
| C=C1C(=O)O[C@@H]2[C@H]3C(C)=CC[C@]34C[C@]4(C)CC[C@@H]12 [Compound 2] | < 40 | 90.92 | 86.62 | 78.26 | 0.0008 (≈ 0.00327 mM) | – | – | – | – | – |
| C=C1C(=O)O[C@H]2[C@H]1CC[C@@]1(C)C[C@]13C[C@@H](O)[C@@](C)(O)[C@H]23 [Compound 4] | < 40 | 98.15 | 96.84 | 96.21 | 0.101 (≈ 0.362 mM) | – | – | – | – | – |
| C=C1CC[C@H]2C(=C)CC[C@H]3C(=C)C(=O)O[C@@H]3[C@@H]12 [dehydrocostus lactone, reference compound] | – | 68.91 | 65.42 | 57.86 | 44.8 (≈ 195 mM) | – | – | – | – | – |
| CN(C)C[C@@H]1C(=O)O[C@H]2[C@H]1CC[C@@]1(C)C[C@]13C[C@@H](O)[C@@](C)(O)[C@H]23 [Compound 26] | 40 to 80 | – | – | – | 248 (≈ 768 mM) | – | – | – | – | – |
| COc1cc(C2Oc3cc([C@H]4Oc5cc(O)cc(O)c5C(=O)[C@@H]4O)ccc3OC2CO)ccc1O (some centres unmarked) [Silybin, reference compound] | – | – | – | – | – | 2.91 | 1.84 | 1.11 | 121.58 | 301.45 |
| CCC(=O)O[C@]1(C)CC[C@@]23C[C@]2(C)CC[C@@H]2[C@H](OC(=O)[C@H]2CN(C)C)[C@H]31 [Compound 29] | 40 to 80 | – | – | – | 195 (≈ 535 mM) | – | – | – | – | – |
| C=C1C(=O)O[C@@H]2[C@@H]3[C@]4(CC[C@@]3(C)OC)C[C@]4(C)CC[C@@H]12 [Compound 8] | < 40 | 98.36 | 95.58 | 94.08 | 0.00852 (≈ 0.0308 mM) | – | – | – | – | – |
| C=C1C(=O)O[C@@H]2C3=C(C)CC[C@]34C[C@]4(C)CC[C@@H]12 [Compound 6] | < 40 | 99.89 | 96.80 | 95.72 | 0.00258 (≈ 0.0106 mM) | – | – | – | – | – |
| CC1=CC[C@@]23C[C@]2(C)CC[C@H]2[C@H](CN(C)C)C(=O)O[C@@H]2C13 (some centres unmarked) [Compound 28] | 80 to 100 | – | – | – | 120 (≈ 416 mM) | – | – | – | – | – |
| CO[C@]1(C)[C@H](O)C[C@@]23C[C@]2(C)CC[C@@H]2[C@H](OC(=O)[C@H]2CN(C)C)[C@@H]13 [Compound 25] | 40 to 80 | – | – | – | 221 (≈ 654 mM) | – | – | – | – | – |
| C=C1C(=O)O[C@H]2[C@H]1CC[C@@]1(C)C[C@]13C[C@@H](O)[C@@](C)(OC)[C@H]23 [Compound 3] | < 40 | 99.98 | 99.87 | 97.77 | 0.0355 (≈ 0.121 mM) | – | – | – | – | – |
| C=C1C(=O)O[C@@H]2[C@@H]3[C@]4(CC[C@@]3(C)F)C[C@]4(C)CC[C@@H]12 [Compound 5] | < 40 | 99.91 | 99.85 | 99.84 | 0.0259 (≈ 0.0979 mM) | – | – | – | – | – |
| CC1=CC[C@@]23C[C@]2(C)CC[C@@H]2[C@H](OC(=O)[C@H]2CN(C)C)[C@@H]13 [Compound 24] | 40 to 80 | – | – | – | 96.6 (≈ 334 mM) | – | – | – | – | – |
| CN(C)C[C@@H]1C(=O)O[C@H]2[C@H]1CC[C@@]1(C)C[C@]13CC[C@@](C)(F)[C@H]23 [Compound 27] | 40 to 80 | – | – | – | 208 (≈ 674 mM) | – | – | – | – | – |
| C=C1C(=O)O[C@@H]2[C@@H]3[C@]4(CC[C@@]3(C)OC(=O)CC)C[C@]4(C)CC[C@@H]12 [Compound 7] | < 40 | 99.31 | 97.85 | 97.65 | 0.0177 (≈ 0.0555 mM) | – | – | – | – | – |

Source: patent US20240124409A1, “GUAIANOLIDE SESQUITERPENE LACTONE DERIVATIVES AND PHARMACEUTICAL USE THEREOF” (NANJING UNIVERSITY OF CHINESE MEDICINE, priority 2021, published 2024)
